Patent US20220033434A1, “ANDROGEN RECEPTOR NUCLEIC ACIDS AND USES THEREOF” (Avidity Biosciences, Inc., priority 2016, published 2022)
In the oligonucleotide strings, read from the 5' end, every base follows the letter of its sugar. An asterisk marks phosphorothioate; unmarked linkages are phosphodiester. Other units and linkages are bracketed, terminal groups are in braces. A string of capitals states the bases alone. d = 2'-deoxy (DNA); m = 2'-O-methyl; f = 2'-fluoro

Legend:
Type in all cases: cell-based, human
[1] = test system: AR FL (full length AR T877A LBD mutant); experiment: AR protein knock-down by Western blot after siRNA transfection in LNCaP cells: AR FL; settings: 5 nM siRNA, 72 h post transfection, compared to controls
Procedure, shortened: (§1)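 Prostate lines 22RV1 and LNCaP are transfected with siRNA at 5 nM final and collected after 50 h or 72 h, respectively. Equal protein loads (30 ug) are blotted for AR via an N-terminal epitope common to splice variants.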

AR FL(1) = experiment: AR protein knock-down by Western blot after siRNA transfection in 22RV1 cells: AR FL(1); settings: 5 nM siRNA, 50 h post transfection, compared to controls
Procedure, shortened: as §1

AR mRNA [2] = experiment: AR mRNA downregulation by RT-qPCR at 5 nM siRNA in LNCaP cells; settings: 24 hrs post-transfection
Description: (§2) Focusing on siRNAs targeting AR sequences exons 1 and 2, the ability of these siRNAs to downregulate AR mRNA at a concentration of 5 nM was determined by RT-qPCR. For this purpose, siRNAs were transfected into 22RV1 and LNCaP cells as described above. At 24 hrs post-transfection, RNA was harvested from cells using a Qiagen RNeasy® Plus Mini Kit or Stratec InviTrap® RNA Cell HTS96 kit. The concentration of each isolated RNA was determined via A260 measurement using a NanoDrop spectrophotometer. RNA samples were reverse transcribed to cDNA using the High Capacity RNA to cDNA Kit (Life Technologies) according to the manufacturer's instructions. cDNA samples were then quantified by qPCR using AR-specific probes and results normalized to either endogenous β-actin or PPIB using the standard 2^−ΔΔCt method. These studies identified 6 siRNAs that at a concentration of 5 nM down regulated AR mRNA in 22RV1 and LNCaP cells by more than 80% compared to controls (Table 4).

AR mRNA [3] = experiment: AR mRNA IC50 and maximal KD, siRNA at various concentrations, 22RV1 cells, qPCR probes exon junctions 1/2 or 4/5
Description: as §2
(§3) To determine the concentration required to reduce AR expression by 50% (IC50) and maximal KD activity, these siRNAs were transfected into LNCaP, C4-2, and 22RV1 cells at various concentrations starting at 100 nM. C4-2 (MD Anderson) is an LNCaP subline that has been selected for resistance against clinically used AR antagonists (Wu et al., “Derivation of androgen-independent human LNCaP prostatic cancer cell sublines: Role of bone stromal cells,” International J Cancer 1994; 57:406-412). Cells were harvested 48 h post-transfection; RNA was prepared and analyzed as stated above. For these experiments, specific AR qPCR probes located at the exon junctions 1/2 or 4/5 were used that recognize most mRNAs of relevant AR isoforms or primarily full length AR mRNA, respectively. All tested siRNAs lowered AR expression with subnanomolar potency to 70% in 22RV1 cells and to ≥90% in LNCaP and C4-2 cells (Table 5). […]

AR-SV(2) = experiment: AR protein knock-down by Western blot after siRNA transfection in 22RV1 cells: AR-SV(2); settings: 5 nM siRNA, 50 h post transfection, compared to controls
Procedure, shortened: as §1

AR mRNA [4] = experiment: AR mRNA downregulation by RT-qPCR at 5 nM siRNA in 22RV1 cells; settings: 24 hrs post-transfection
Description: as §2

AR-SV(3) = experiment: AR protein knock-down by Western blot after siRNA transfection in 22RV1 cells: AR-SV(3); settings: 5 nM siRNA, 50 h post transfection, compared to controls
Procedure, shortened: as §1

AR mRNA [5] = experiment: AR mRNA IC50 and maximal KD, siRNA at various concentrations, C4-2 cells, qPCR probes exon junctions 1/2 or 4/5
Description: as §2, §3

AR mRNA [6] = experiment: AR mRNA IC50 and maximal KD, siRNA at various concentrations, LNCaP cells, qPCR probes exon junctions 1/2 or 4/5
Description: as §2, §3

[7] = AR qPCR probe at exon junction 1/2, 48 h post-transfection
[8] = AR qPCR probe at exon junction 1/2, 48 h post-transfection, read-out: IC50 (nM), 22RV1, Exon 1/2
[9] = AR qPCR probe at exon junction 4/5, 48 h post-transfection
[10] = AR qPCR probe at exon junction 4/5, 48 h post-transfection, read-out: IC50 (nM), 22RV1, Exon 4/5
[11] = AR qPCR probe at exon junction 1/2, 48 h post-transfection, read-out: IC50 (nM), C4-2, Exon 1/2
[12] = AR qPCR probe at exon junction 4/5, 48 h post-transfection, read-out: IC50 (nM), C4-2, Exon 4/5
[13] = AR qPCR probe at exon junction 1/2, 48 h post-transfection, read-out: IC50 (nM), LNCaP, Exon 1/2
[14] = AR qPCR probe at exon junction 4/5, 48 h post-transfection, read-out: IC50 (nM), LNCaP, Exon 4/5

Substance | % KD AR Protein LNCaP AR FL [1] [%] | % KD AR Protein 22RV1 AR FL(1) (AR FL(1)) [%] | % KD AR RNA LNCaP (AR mRNA [2]) [%] | max KD (%), 22RV1, Exon 1/2 (AR mRNA [3]; [7]) [%] | IC50 (AR mRNA [3]; [8]) [nM] | max KD (%), 22RV1, Exon 4/5 (AR mRNA [3]; [9]) [%] | IC50 (AR mRNA [3]; [10]) [nM] | % KD AR Protein 22RV1 AR-SV(2) (AR-SV(2)) [%] | % KD AR RNA 22RV1 (AR mRNA [4]) [%] | % KD AR Protein 22RV1 AR-SV(3) (AR-SV(3)) [%] | max KD (%), C4-2, Exon 1/2 (AR mRNA [5]; [7]) [%] | IC50 (AR mRNA [5]; [11]) [nM] | max KD (%), C4-2, Exon 4/5 (AR mRNA [5]; [9]) [%] | IC50 (AR mRNA [5]; [12]) [nM] | max KD (%), LNCaP, Exon 1/2 (AR mRNA [6]; [7]) [%] | IC50 (AR mRNA [6]; [13]) [nM] | max KD (%), LNCaP, Exon 4/5 (AR mRNA [6]; [9]) [%] | IC50 (AR mRNA [6]; [14]) [nM]
XD-01817: AR siRNA with chemical modification, Id # 1987; sense X05329 (SEQ ID NO: 159), antisense X05330 (SEQ ID NO: 160) (sense mAmAfGmGfUmUfCmUfCmUfGmCfUmAfGmAfCmGfAdT*dT; antisense fUfCmGfUmCfUmAfGmCfAmGfAmGfAmAfCmCfUmUdT*dT) | 99 | 83 | 87 | 49.3 | 0.059 | 61.1 | 0.043 | 91 | 83 | 86 | 83.6 | 0.021 | 84.1 | 0.023 | 83.4 | 0.018 | 87.2 | 0.017
XD-01821: AR siRNA with chemical modification, Id # 2207; sense X05337 (SEQ ID NO: 167), antisense X05338 (SEQ ID NO: 168) (sense mCmUfAmCfAmAfCmUfUmUfCmCfAmCfUmGfGmCfUdT*dT; antisense fAfGmCfCmAfGmUfGmGfAmAfAmGfUmUfGmUfAmGdT*dT) | 96 | 73 | 81 |  |  |  |  | 80 | 68 | 7 |  |  |  |  |  |  |  | 
XD-01825: AR siRNA with chemical modification, Id # 2814; sense X05345 (SEQ ID NO: 175), antisense X05346 (SEQ ID NO: 176) (sense mGmCfUmUfCmUfGmGfGmUfGmUfCmAfCmUfAmUfGdT*dT; antisense fCfAmUfAmGfUmGfAmCfAmCfCmCfAmGfAmAfGmCdT*dT) | 91 | 90 | 82 | 53.5 | 0.067 | 60.7 | 0.055 | 93 | 91 | 95 | 83.5 | 0.024 | 84.6 | 0.026 | 82.5 | 0.02 | 84.9 | 0.018
XD-01826: AR siRNA with chemical modification, Id # 2817; sense X05347 (SEQ ID NO: 177), antisense X05348 (SEQ ID NO: 178) (sense mUmCfUmGfGmGfUmGfUmCfAmCfUmAfUmGfGmAfGdT*dT; antisense fCfUmCfCmAfUmAfGmUfGmAfCmAfCmCfCmAfGmAdT*dT) | 91 | 87 | 81 | 52.4 | 0.146 | 64.8 | 0.057 | 92 | 89 | 93 | 86.5 | 0.049 | 87.0 | 0.046 | 84.6 | 0.041 | 86.0 | 0.035
XD-01827: AR siRNA with chemical modification, Id # 2819; sense X05349 (SEQ ID NO: 179), antisense X05350 (SEQ ID NO: 180) (sense mUmGfGmGfUmGfUmCfAmCfUmAfUmGfGmAfGmCfUdT*dT; antisense fAfGmCfUmCfCmAfUmAfGmUfGmAfCmAfCmCfCmAdT*dT) | 90 | 89 | 86 | 38.7 | 0.108 | 54.0 | 0.068 | 92 | 89 | 93 | 83.2 | 0.052 | 85.7 | 0.052 | 81.7 | 0.053 | 84.5 | 0.06
XD-01828: AR siRNA with chemical modification, Id # 2820; sense X05351 (SEQ ID NO: 181), antisense X05352 (SEQ ID NO: 182) (sense mGmGfGmUfGmUfCmAfCmUfAmUfGmGfAmGfCmUfCdT*dT; antisense fGfAmGfCmUfCmCfAmUfAmGfUmGfAmCfAmCfCmCdT*dT) | 90 | 80 | 84 | 51.7 | 0.042 | 50.7 | 0.028 | 89 | 96 | 92 | 81.1 | 0.022 | 77.7 | 0.02 | 84.8 | 0.023 | 81.7 | 0.028
